Numbers after ± are expanded uncertainties.
experiment: wn = mass fraction of the nth substance listed; conditions: 293.15 K; 100 kPa; Liquid; Vibrating tube method; w1 = 0.7

Row | Compound | mass density [kg/m3]
1 | O=[N+]([O-])O [nitric acid] + O | 1411.5 ± 2.9

experiment: not given; conditions: 293.15 K; 101.33 kPa; Liquid; Vibrating tube method

Row | mass density [kg/m3] | Compound
2 | 791.9 ± 0.4 | CO [methanol]
3 | 810.1 ± 1.6 | CCCC(C)O (stereo unspecified) [pentan-2-ol]
4 | 998.5 ± 0.4 | O [water]

Continued, compound first:

Row | Compound | mass density [kg/m3]
5 | CCn1cc[n+](C)c1.F[B-](F)(F)F [1-ethyl-3-methylimidazolium tetrafluoroborate] | 1283 ± 5.3
6 | CC(=O)CC(C)C [4-methylpentan-2-one] | 800.9 ± 1.6
